Data reported in patent publication US20110053900A1, “PROGESTERONE ANTAGONISTS SUCH AS CDB-4124 IN THE TREATMENT OF BREAST CANCER” (Repros Therapeutics inc, priority 2008, published 2011).

What was measured:
[1] = tested on: DMBA-induced tumors of the rat mammary gland; test: DMBA-induced breast tumors: tumor number and tumor type at necropsy; type: in vivo; details: 10 mg/kg s.c. daily, 28 days
Protocol: (§1) To induce breast tumors, Sprague-Dawley female rats were given 10 mg/kg body weight of DMBA at 50 days of age. One group of 14 rats (Group 2) received sesame oil at 50 days of age instead of DMBA to serve as the no-DMBA controls. Animals were weighed and palpated weekly along the milk line for any sign of lesions or swellings. Tumor nodules were noted and measured weekly in two dimensions with calipers. When tumors grew to a size of 10-12 mm in any dimension, the individual animal was randomized into one of 14 groups. Tumors appeared as soon as 39 days after oral gavage and as late as 194 days (latter individual not included in study). The mean latency period for tumor appearance was 106±30 days.
(§2) Animals were treated for 28 days on the following schedule. Group 1 received daily subcutaneous (s.c.) injections of vehicle (10% ethanol in sesame oil). Group 2 (no DMBA control group-no tumors expected) received vehicle on a schedule decided beforehand to simulate initiation of treatment over a three-month time period. […] Groups 5 through 9 received 20 mg/kg, 10 mg/kg, 2 mg/kg, 1 mg/kg and 0.1 mg/kg of CDB-4124, respectively. Groups 10 through 14 mirrored the treatment given 5 through 9 except that 10 mg/kg of micronized progesterone was also added as a component to compositions for injections.
(§3) Animals were sacrificed 3-5 days after the end of the 28-day treatment period, blood was drawn, and tumors were removed, weighed, measured, inspected, and portions frozen and/or placed in 10% phosphate buffered formalin for histopathology. The tissue samples were cut and stained with hematoxylin and eosin and were evaluated for histopathological classification.
Histologically, four types of tumors were identified (Table 2): adenocarcinomas (ACAs), papillary carcinomas (PCAs), a fibrosarcoma, and fibroadenomas or adenofibromas (FA or AF), the latter two tumor types were not considered to represent frank malignancies.

[2] = tested on: DMBA-induced tumors of the rat mammary gland; test: DMBA-induced breast tumors: tumor progression (growth pattern); type: in vivo; details: 10 mg/kg
Protocol: as §1, §2
In order to evaluate the effects of CDB-4124, RU486 and progesterone on tumor development and progression, growth kinetics and tumor size were monitored during the treatment period. Individual tumors from animals with tumors in the study were measured weekly in two dimensions with calipers. The data is corrected to exclude the non-malignant FA/AF tumor types. Tumors that increased in cross-sectional area by at least 33% over the 28-day inspection period were considered to be growing (FIG. 1, black boxes). Those that decreased by approximately 33% were considered to be regressing (FIG. 1, white boxes). Others were considered to be static (FIG. 1, gray boxes).

[3] = tested on: DMBA-induced tumors of the rat mammary gland; test: DMBA-induced breast tumors: tumor number, size and tumor burden at necropsy; type: in vivo; details: 10 mg/kg s.c. daily, 28 days
Protocol: as §1, §2, §3
The results in Table 3 are those for ACA, PCA and mixed ACA/PCA, but the FA or AF tumors are excluded.

[4] = tested on: rat tumors (proliferation marker Ki-67); test: Tumor proliferation by Ki-67 immunohistochemistry; type: in vivo; details: 10 mg/kg
Excerpt: In order to assess the effects of progestins and anti-progestins on cell proliferation, tissue sections derived from 46 individual rat tumors from treated an control animals were examined by measuring expression of the proliferation marker Ki-67 using the Ki-67 antibody (NeoMarkers, Fremont, Calif.) and immunohistochemistry. Despite the reduction in size of many tumors in Groups 3 and 6 following treatment in Groups 3 and 6 making them too small to be re-cut, 7-12 ACAs from Groups 1, 3, 4, 6 and 11 were re-cut. The results of proliferation experiments, in which proliferation was measured as a percentage of cells expressing Ki-67, are summarized in Table 4: […]

rat tumors = test: Apoptosis in tumors; type: in vivo; details: 10 mg/kg
Protocol: Apoptosis was evaluated in the same tumors by an apoptosis hybridization kit (Oncor, Gaithersburg, Md.). The cells in apoptosis were evaluated in the peripheral areas of the tumors and far from necrosis. At least 1,000 cells per tumor section were evaluated.

estrogen receptor (ER) = test: Expression of estrogen receptor in tumors (IHC); type: in vivo, rat; details: 10 mg/kg
Protocol: (§4) The tumors that were evaluated for proliferation and apoptosis were also assessed for expression of estrogen and progesterone receptors by immunohistochemistry (IHC). The percentage of cells positive for ER and PR was determined and analyzed. Tumors were grouped into four different categories: tumors with 0% of cells expressing ER, tumors with 10% of cells expressing ER, tumors with 15 to 30% of cells expressing ER and tumors with 30-50% of cells expressing ER. In general, untreated tumors consistently expressed ER. Out of 12 tumors analyzed, all 12 expressed ER. Four out of these 12 tumors contained 30-50% ER-positive cells.

[5] = tested on: progesterone receptor (PR); test: Expression of progesterone receptor in tumors (IHC); type: in vivo, rat; details: 10 mg/kg
Protocol: as §4
Untreated tumors consistently expressed PR (12/12 tumors). In general, untreated tumors expressed both receptors, ER and PR, therefore it is possible that many malignant tumors are expressors of these two transcription factors. […] In general, long term treatment with CDB-4124 tends to drive down the level of PR in tumors, whereas progesterone tends to work in the opposite direction. Thus, tumors maintain progesterone responsiveness in the presence of progesterone.

[6] = Serum progesterone by ELISA; type: in vivo, rat
Protocol: (§5) The animals were assessed three times for their levels of progesterone: initially, when they were about to go on treatment; a second time after 21 days of treatment; and finally after treatment at sacrifice which was 2-4 days after the last s.c. injection. All blood samples were taken by heart puncture; serum was prepared and held frozen at −40° C. The levels of the steroid hormones progesterone, cortisol, and corticosterone were determined by ELISA.
(§6) The concentrations of steroid hormones were determined three times during the study: before the beginning of treatments, after 21 days of treatment and finally after treatment at sacrifice which was 2-4 days after the last s.c. injection. All samples were taken by heart puncture. Serum was obtained and held frozen at −40° C. The levels of steroid hormones were determined by ELISA.

[7] = Serum corticosterone by ELISA; type: in vivo, rat; details: exogenous progesterone 10 mg/kg, after 21 days of treatment, paired groups
Protocol: as §5, §6
Corticosterone is the most abundant glucocorticoid in rats. The effects of the SPRMs on cortisol may be secondary to strong effects on corticosterone. […] The levels of corticosterone were 10-40 times higher than the levels of cortisol. However, almost no difference between groups with respect to mean corticosterone levels was observed. […] There was no statistical difference in levels of corticosterone between animals with tumors and without tumors at either 21-days (p=0.94, t-test, two-tailed) or at sacrifice (p=0.37, t-test, two-tailed).

Compound: CC(=O)[C@H]1CC[C@H]2[C@@H]3CCC4=CC(=O)CC[C@]4(C)[C@H]3CC[C@]12C [Progesterone, progesterone]
- ACA + PCA per rat [1]: 4.90
- ACA per rat [1]: 3.3
- FA/AF no. [1]: 3
- Incidence of tumors (%) [1]: (100) %
- Incidence of tumors (rats with tumors/rats) [1]: 10/10
- PCA per rat [1]: 1.4
- ACA + PCA per rat ([1]; listed as progesterone): ~5
- proportion of tumors regressing ([2]; decrease of cross-sectional area by about 33% over 28 days): 8%
- proportion of the growing tumors ([2]; increase of cross-sectional area by at least 33% over 28 days): 80%
- Tumor Burden [3]: 7.34 g/rat
- Tumor Weight mean [3]: 1.5 g
- Tumor Weight median [3]: 0.5 g
- Number of Tumors ([3]; FA/AF excluded): 49
- Proliferating tumor cells by Ki-67, % cells positive [4]: 25.7 ± 5.8%
- Apoptosis, % cells positive (rat tumors): 1.28 ± 0.51%
- number of cells expressing ER in tumors (in words) (estrogen receptor (ER)): increased number of cells expressing ER
- PR expression in tumors (in words) [5]: tended to raise PR expression
- Serum Progesterone, Before TX (mean) ([6]; 10 mg/kg group, before treatment): 51 ng/mL
- Serum Progesterone, During TX (mean) ([6]; 10 mg/kg, after 21 days of treatment): 55 ng/mL
- Serum Progesterone, After TX (mean) ([6]; 10 mg/kg, at sacrifice 2-4 days after the last s.c. injection): 54 ng/mL
- effect on serum corticosterone (in words) [7]: levels of corticosterone were lowered
